Assay results taken from paper PMC11229689, “In Vitro Selection of Macrocyclic L-α/D-α/β/γ-Hybrid Peptides Targeting IFN-γ/IFNGR1 Protein–Protein Interaction” (Journal of the American Chemical Society, 2024).
Where two headings read alike, the source gives them in different places. *1 amine or outer side, *2 acyl side, *3 side chain or, on linkers, in order; H or OH if unused. Where a SMILES comes first, the peptide text is derived from it. Bridges are numbered along the chain shown (N, C = ends). [ ]: non-standard residue; d: D form. Acbc(trans-1,3) = O=C([C@H]1C[C@H](N[*:1])C1)[*:2]; Acbc(cis-1,3) = O=C([C@H]1C[C@@H](N[*:1])C1)[*:2]; X1 = O=C([C@@H]1CCC[C@@H]1N[*:1])[*:2]; Orn = NCCC[C@H](N)C(=O)O

Legend:
Fc-tagged human IFNGR1 = target: T1, Fc-tagged human IFNGR1 (Homo sapiens, UniProt P15260); assay: Binding kinetics and affinity to IFNGR1 by surface plasmon resonance (SPR); details: SPR, 25 °C, 1:1 binding model; for Kd: read-out: KD; for kon: single-cycle kinetics, read-out: ka
T1 construct: purchased ACROBiosystems
T1 sequence (P15260 18-489): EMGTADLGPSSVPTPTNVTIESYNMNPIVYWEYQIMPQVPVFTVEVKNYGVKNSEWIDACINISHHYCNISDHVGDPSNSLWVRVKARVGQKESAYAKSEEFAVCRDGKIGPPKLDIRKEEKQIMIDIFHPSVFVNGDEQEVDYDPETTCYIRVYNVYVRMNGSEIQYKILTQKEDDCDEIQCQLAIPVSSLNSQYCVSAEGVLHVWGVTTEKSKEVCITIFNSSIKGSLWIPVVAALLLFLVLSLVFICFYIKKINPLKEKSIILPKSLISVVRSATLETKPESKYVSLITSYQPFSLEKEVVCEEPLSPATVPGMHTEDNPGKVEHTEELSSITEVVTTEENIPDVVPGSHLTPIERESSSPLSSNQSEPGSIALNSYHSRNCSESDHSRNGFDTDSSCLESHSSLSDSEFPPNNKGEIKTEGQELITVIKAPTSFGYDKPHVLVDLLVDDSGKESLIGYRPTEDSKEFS
Outline: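 Fc-tagged IFNGR1 captured on a protein G chip (1,200–1,600 RU), 25 °C, running buffer 10 mM Tris-HCl pH 8.0, 150 mM NaCl, 0.05% Tween 20, 0.1% DMSO. Single-cycle kinetics with five twofold-diluted peptide concentrations at 30 μL/min. Sensorgrams fitted to a 1:1 binding model for kinetic constants and affinity.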

[1] = Serum stability assay (LC/MS); type: in vitro ADME, human; details: for half-life: human
Protocol: Binding affinities of IA1 and IA2 against IFNGR1 were evaluated by surface plasmon resonance (SPR) (Table 1 and SI Figure S6A). […] To investigate the contribution of the N-terminal [yVPβ^1RR] motif and β^1 residue in IA1, three scrambled peptides IA1s1–3 and a variant IA1β^14A were synthesized and evaluated. […] We next evaluated inhibitory activities of IA1 and IA2 against the ligand–receptor PPI between IFN-γ and IFNGR1 using AlphaLISA (Table 1 and SI Figure S7).[37] […] We also determined the serum half-lives of IA1 and IA2, considering peptidase resistance as an important factor for therapeutic peptides.[24] A sample peptide and a peptidase-resistant internal standard peptide were coincubated in human serum at 37 °C, and the relative amount of the remaining sample peptide was estimated by LC/MS. […]
10–200 μM synthetic peptide and 5 μM serum-resistant internal standard peptide consisting only of D-amino acids (NH2-PEG5-wstndwstnd-PEG5-CONH2)3 were mixed and incubated in human serum (Cosmo Bio, 12181201) at 37 °C for up to 120 h. At each time point, 4 μL of the mixture was removed and quenched by adding 12 μl methanol. Following centrifugation (15,000 g, 4 °C, 5 min), 10 μL of the supernatant was mixed with 40 μl of 1% (v/v) TFA. Following centrifugation (15,000 g, 4 °C, 5 min), the supernatant was collected for LC/MS analysis, which used a reverse-phase column (ACQUITY UPLC BEH C18, 1.7 μm, 2.1 × 150 mm; Waters) and a Xevo G2-XS QTof system (Waters) with a linear gradient from 1% B to 61% B. Buffer A was water with 0.1% (v/v) formic acid; buffer B was acetonitrile with 0.1% (v/v) formic acid. The percentages of remaining peptides were determined by the peak area integration of the chromatograms. For tandem mass spectrometry, MS/MS spectra were acquired with a 0.2 s scan time, with 10−30 eV collision energy. The obtained LC/MS data was analyzed using MassLynx 4.1 (Waters). […]

[2] = target: T2, IFN-γ/IFNGR1 protein–protein interaction (Homo sapiens, UniProt P15260); assay: IFNGR1 inhibition assay using AlphaLISA; type: biochemical; details: four-parameter dose–response fit, n = 3
T2 construct: purchased ACROBiosystems
T2 sequence (P15260 18-245 limits assumed): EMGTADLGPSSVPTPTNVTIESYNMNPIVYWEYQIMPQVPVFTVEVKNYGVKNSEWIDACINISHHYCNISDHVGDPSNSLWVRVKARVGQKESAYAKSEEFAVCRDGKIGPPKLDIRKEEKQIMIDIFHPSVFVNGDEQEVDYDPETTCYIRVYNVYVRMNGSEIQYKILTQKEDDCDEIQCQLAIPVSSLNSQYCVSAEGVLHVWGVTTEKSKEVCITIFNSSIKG
Protocol: IFNGR1 inhibition assay using AlphaLISA
The inhibitory activity of peptides against IFN-γ/IFNGR1 protein–protein interaction (PPI) was determined by AlphaLISA.5 Peptides, proteins, and beads were diluted in AlphaLISA immunoassay buffer (PerkinElmer, AL000C). 3.6 μL of 5 nM Fc-tagged IFNGR1 and 3.6 μL of synthetic peptides were mixed in AlphaPlate-384 Shallow Well (PerkinElmer) and preincubated at 25 °C for 10 min. 3.6 μL of 15 nM biotin-tagged IFN-γ was then added to the mix and incubated at 25 °C for 20 min. 3.6 μL each human IgG acceptor beads (PerkinElmer) and streptavidin donor beads (PerkinElmer) were added to the above mix and incubated at 25 °C for 30 min in dark place. Emission at 615 nm was measured […]
by EnSpire Multimode Plate Reader (PerkinElmer). The fraction of bound IFN-γ/IFNGR1 was calculated by the intensity of emission in the presence of peptide divided by that in the absence of […]
peptide. […]
Puromycin. Normocin, Blasticidin, Zeocin, and Puromycin were excluded when conducting the experiments. To evaluate the cellular activity of peptides, peptide mixtures were added to 50,000 cells/well in a flat-bottom 96-well plate and pre-incubated for 30 min at 37 °C before stimulation.
Subsequently, 1 ng/mL of recombinant IFN-γ (InvivoGen) was added to each well in a final reaction volume of 200 μL, followed by incubation for 20 h at 37 °C. 20 μL of supernatants from the induced cells was added to 180 μL Q U A N T I-Blue TM solution (InvivoGen). After further incubation for 3 h at 37 °C, the expression levels of the secreted embryonic alkaline phosphatase (SEAP) were determined by reading the O.D. at 650 nm on a Tecan M1000 PRO microplate reader (Tecan Group) and normalized to the non-treated well. IC50 value was analyzed by a normalized dose-response curve fitting by using GraphPad Prism 9.
HEK-DualTM IFN-γ cells were used for the cell viability assay. 10,000 cells/well were added to each well in a flat-bottom 96-well plate. After 24 h, peptide mixtures were added to each well in a final volume of 100 μL. After further incubation for 24 h, 10 μL CCK-8 reagent (Dojindo) was added to […]

[3] = human serum, 37 °C, LC/MS, relative to internal standard peptide, n = 3, read-out: half-life in human serum (t1/2) (converted)

Row | Kd (Fc-tagged human IFNGR1) [nM] | kon (Fc-tagged human IFNGR1) [M⁻¹ s⁻¹] | half-life ([1]; serum, half-life in human serum (t1/2)) [h] | IC50 [2] [nM] | half-life in human serum (t1/2) ([1]; human serum, 37 °C, LC/MS, relative to internal standard peptide, n = 3) [h] | half-life [1, 3] [h] | Structure (SMILES)
1 | 34 ± 5 | 950000 ± 680000 | 42 ± 2 | 70 ± 4 | – | – | CC(C)[C@@H]1NC(=O)[C@@H](Cc2ccc(O)cc2)NC(=O)CSC[C@H](C(N)=O)NC(=O)[C@H](C)NC(=O)[C@H](CO)NC(=O)[C@H](CCCN)NC(=O)[C@H](CCCN)NC(=O)CNC(=O)[C@H]2C[C@H](C2)NC(=O)[C@H](Cc2c[nH]cn2)NC(=O)[C@H](CC(N)=O)NC(=O)[C@H](CCCNC(=N)N)NC(=O)[C@H](CCCNC(=N)N)NC(=O)[C@@H]2CCC[C@@H]2NC(=O)[C@H](C)NC1=O [IB3Orn, ^AcyVAβ^1RRNHγ^1GOOSAc-NH2] ({CH2CO}-[dY]VA[X1]RRNH[Acbc(cis-1,3)]G[Orn][Orn]SA[dC]-NH2; thioether N-15)
2 | 22 ± 11 | 160000 ± 190000 | – | 47 ± 15 | 1.1 ± 0.0 | < 1.3 | CC(C)[C@@H]1NC(=O)[C@@H](Cc2ccc(O)cc2)NC(=O)CSC[C@H](C(N)=O)NC(=O)[C@H](CC(N)=O)NC(=O)[C@H]2C[C@@H](C2)NC(=O)[C@H](CCCNC(=N)N)NC(=O)[C@@H]2CCCN2C(=O)[C@H]([C@@H](C)O)NC(=O)[C@H](CCCNC(=N)N)NC(=O)[C@H](CCCNC(=N)N)NC(=O)[C@H](CO)NC(=O)[C@H](CCCNC(=N)N)NC(=O)[C@H](CCCNC(=N)N)NC(=O)[C@@H]2CCC[C@@H]2NC(=O)[C@@H]2CCCN2C1=O [IB4, ^AcyVPβ^1RRSRRTPRγ^2Nc-NH2] ({CH2CO}-[dY]VP[X1]RRSRRTPR[Acbc(trans-1,3)]N[dC]-NH2; thioether N-15)
3 | 8.2 ± 1.4 | 790000 ± 330000 | – | 7.8 ± 1.6 | – | 0.46 ± 0.05 | CC(C)[C@@H]1NC(=O)[C@@H](Cc2ccc(O)cc2)NC(=O)CSC[C@H](C(N)=O)NC(=O)[C@H](CC(N)=O)NC(=O)[C@H](C)NC(=O)[C@H](CCCNC(=N)N)NC(=O)[C@@H]2CCCN2C(=O)[C@H]([C@@H](C)O)NC(=O)[C@H](CCCNC(=N)N)NC(=O)[C@H](CCCNC(=N)N)NC(=O)[C@H](CO)NC(=O)[C@H](CCCNC(=N)N)NC(=O)[C@H](CCCNC(=N)N)NC(=O)[C@@H]2CCC[C@@H]2NC(=O)[C@@H]2CCCN2C1=O [IB4γ^213A, ^AcyVPβ^1RRSRRTPRA Nc-NH2] ({CH2CO}-[dY]VP[X1]RRSRRTPRAN[dC]-NH2; thioether N-15)
